The source of these data is patent US20260335323A1, “CHIMERIC MOLECULE” (UCL Business Ltd, priority 2023, published 2026).

This series relates to PANC-1 cells. Description: mCherry-EGFP-LC3 tandem reporter assay, autophagosomes/autolysosomes. Particulars: for autophagic flux: bafilomycin A1 co-treatment; for enhanced number of mCherry puncta: co-treatment with bafilomycin A1; for fold increase in number of mCherry puncta: mCherry puncta (autolysosomes); for fold increase in number of EGFP puncta: panc-1 cells. The series is classed as cell-based, human. The protocol:
FIG. 1. The structure of AUTAC-4 is shown in (A). (B) Representative images of SH-SY5Y cells stably expressing the mito-mKeima reporter treated with AUTAC4 for 18 h. Nuclei were stained with Hoechst 33342, healthy mitochondria are shown in green and mitochondria in lysosomes are shown in red. (C-E) Fold change in mitophagy index over time after treatment with increasing concentrations of AUTAC4 under treatment with DMSO (C), 3 mM CCCP (D) or 0.1/0.1 mM antimycin/oligomycin (E), also for 18 h. (F) Quantification of changes in mitochondrial membrane potential over time (DYm) by measuring the TMRM relative fluorescence intensity (RFI) treated with DMSO, 10 mM CCCP, 10 mM and 20 mM AUTAC4. Normalised to number of nuclei. (G) Representative western blot of SH-SY5Y cells treated with DMSO, 10 mM AUTAC4 or 10 mM AUTAC4+0.1/0.1 mM antimycin/oligomycin for 18 h and, probed for p62, b-actin and Tom20. Quantifications of western blot for changes in Tom20 and p62 levels shown in (H) and (I), respectively. (J) Representative images of PANC-1 cells stably expressing the mCherry-EGFP-LC3 tandem reporter. Nuclei stained with Hoechst 33342, autophagosomes are shown in the EGFP channel and autolysosomes in the mCherry channel. Fold change in the number of autophagosome (K) and autolysosome (L) puncta in AUTAC4 treated cells. All data shown are mean±SEM, n=3, *p<0.05, *** p<0.001. For mito-mKeima experiments, statistics were calculated by Two-way ANOVA with Tukey's multiple comparisons test. For western blots, TMRM and LC3 tandem reporter assay, statistics were calculated with one-way ANOVA with Tukey's multiple comparisons test.
FIG. 2. BL-918 is a potent ULK1 agonist and autophagy inducer (A) Representative images of PANC-1 cells stably expressing the mCherry-EGFP-LC3 tandem reporter treated with ULK1 agonists. Nuclei stained with Hoechst 33342, autophagosomes are shown in the EGFP channel and autolysosomes in the mCherry channel. Fold change in the number of autophagosomes (B) and autolysosomes (C) puncta in ULK1 agonist treated cells. (D) Western blot of PANC-1 cells treated with DMSO, bafilomycin and ULK1 agonists±bafilomycin; probed for p-ULK1 (S317), ULK1, p62, b-actin, LC3-I and LC3-II. Quantifications of western blot for changes in the ratio of p-ULK1 (S317):ULK1 (E), p62 (F) and LC31:LC3II (G). All data shown are mean±SEM, n=3, *p<0.05, ** p<0.01, one-way ANOVA with Dunnett's multiple comparisons test.
FIG. 4. ULKTACs retain ULK1 agonist activity and subsequent induction of autophagy (A) Western blot of PANC-1 cells treated with ULKTACs±bafilomycin, probed for p-ULK1 (S317), ULK1, p62, b-Actin, LC31 and LC3II. Quantifications of (A) for the pULK1:ULK1 ratio (B) LC3I:LC3II ratio (C) and changes in p62 (D). (E) Representative images of PANC-1 cells stably expressing the mCherry-EGFP-LC3 tandem reporter treated with ULKTACs w/or w/o bafilomycin. Nuclei stained with Hoechst 33342, autophagosomes are shown in the EGFP channel and autolysosomes in the mCherry channel. Fold change in the number of autophagosome (F) and autolysosome (G) puncta. Data shown are mean±SEM, *p<0.05, ** p<0.01, *** p<0.001, one-way ANOVA, Dunnett's multiple comparisons test.
PANC-1 and A549 cells were separately seeded at a medium density in 24-well plates and infected overnight with 500 μL of filtered viral supernatant containing polybrene at a final concentration of 8 μg/mL. Cells were selected at 48 h post-transfection with 1 μg/mL puromycin and expanded into 10 cm tissue-culture treated dishes. Puromycin treatment was withheld once control cells had died. Experiments were performed without puromycin present using pooled populations of transduced cells. A549 and PANC-1 stably expressing mCherry-EGFP-LC3 tandem reporter cells were imaged with the PerkinElmer Opera Phenix or Opera Phenix Plus High Content Imaging Systems and analysed using Columbus software (v2.9.1). […]

For `O=C(Nc1ccc(F)cc1F)[C@H](NC(=S)Nc1cc(C(F)(F)F)cc(C(F)(F)F)c1)c1ccccc1` [BL-918, reference compound], the “green fluorescent puncta / number of autophagosomes” value is “mild increase in autophagosome number”.
With `O=C(Nc1cc(C(F)(F)F)cc(C(F)(F)F)c1)N[C@@H](C(=O)Nc1ccc(F)cc1F)c1ccc(OCc2cn(CCOCCOCCNC(=O)C(=O)c3c(-c4ccccc4)[nH]c4ccccc34)nn2)cc1` [NZ-65, (R)-2-(3-(3,5-bis(trifluoromethyl)phenyl)ureido)-N-(2,4-difluorophenyl)-2-(4-((1-(2-(2-(2-(2-oxo-2-(2-phenyl-1H-indol-3-yl)acetamido)ethoxy)ethoxy)ethyl)-1H-1,2,3-triazol-4-yl)methoxy)phenyl) acetamide], the autophagic flux result was “did not block autophagic flux”, the “enhanced number of mCherry puncta” value is “reversed”, the “fold increase in number of mCherry puncta” value was determined as 1.3 fold and the “fold increase in number of EGFP puncta” value stood at 1.5 fold.
In the case of `O=C(Nc1cc(C(F)(F)F)cc(C(F)(F)F)c1)N[C@@H](C(=O)Nc1ccc(F)cc1F)c1ccc(OCc2cn(CCCCCCNC(=O)C(=O)c3c(-c4ccccc4)[nH]c4ccccc34)nn2)cc1` [NZ-66, (R)-2-(3-(3,5-bis(trifluoromethyl)phenyl)ureido)-N-(2,4-difluorophenyl)-2-(4-((1-(6-(2-oxo-2-(2-phenyl-1H-indol-3-yl)acetamido)hexyl)-1H-1,2,3-triazol-4-yl)methoxy)phenyl) acetamide], the autophagic flux result was “did not block autophagic flux”, the “enhanced number of mCherry puncta” value is on record as “reversed”, the “fold increase in number of mCherry puncta” value is 1.3 fold and the “fold increase in number of EGFP puncta” value is reported as 1.5 fold.
